From the kinase profiling compilation of Christmann-Franck et al. (2016)

Experiments:
Test in all cases: KINOMEscan competition binding
Settings in all cases: compound 10.0 µM
[1] = molecular target: BMPR1B (human) (UniProt O00238)
[2] = molecular target: MAP3K5 (human) (UniProt Q99683)
[3] = molecular target: DAPK1 (human) (UniProt P53355)
[4] = molecular target: PHKG2 (human) (UniProt P15735)
[5] = molecular target: MINK1 (human) (UniProt Q8N4C8)
[6] = molecular target: CHUK (human) (UniProt O15111)
[7] = molecular target: PIP4K2B (human) (UniProt P78356)
[8] = molecular target: MYLK3 (human) (UniProt Q32MK0)
[9] = molecular target: ACVR2B (human) (UniProt Q13705)
[10] = molecular target: CDK16 (human) (UniProt Q00536)
[11] = molecular target: RIOK1 (human) (UniProt Q9BRS2)
[12] = molecular target: ACVR2A (human) (UniProt P27037)
[13] = molecular target: DCLK3 (human) (UniProt Q9C098)
[14] = molecular target: JAK3 JH1 catalytic (human) (UniProt P52333)
[15] = molecular target: CLK3 (human) (UniProt P49761)
[16] = molecular target: CAMKK1 (human) (UniProt Q8N5S9)
[17] = molecular target: RPS6KA5 KD2 (human) (UniProt O75582)
[18] = molecular target: TGFBR2 (human) (UniProt P37173)
[19] = molecular target: TAOK3 (human) (UniProt Q9H2K8)
[20] = molecular target: RIPK4 (human) (UniProt P57078)
[21] = molecular target: STK17A (human) (UniProt Q9UEE5)
[22] = molecular target: MAP2K4 (human) (UniProt P45985)
[23] = molecular target: RIOK2 (human) (UniProt Q9BVS4)
[24] = molecular target: NEK2 (human) (UniProt P51955)
[25] = molecular target: KIT (human) (UniProt P10721)
[26] = molecular target: FLT3 (human) (UniProt P36888)
[27] = test system: FLT3 (human), P36888 [N841I]
[28] = molecular target: SRPK3 (human) (UniProt Q9UPE1)
[29] = molecular target: MAP4K4 (human) (UniProt O95819)
[30] = test system: EIF2AK4 KD2 (human), Q9P2K8 [S808G]
[31] = molecular target: ACVR1 (human) (UniProt Q04771)
[32] = test system: KIT (human), P10721 [V559D]
[33] = test system: FLT3 (human), P36888 [K663Q]
[34] = test system: FLT3 (human), P36888 [D835H]
[35] = molecular target: STK24 (human) (UniProt Q9Y6E0)
[36] = molecular target: TNK1 (human) (UniProt Q13470)
[37] = molecular target: JAK1 JH2 pseudokinase (human) (UniProt P23458)
[38] = molecular target: AURKC (human) (UniProt Q9UQB9)
[39] = molecular target: CSNK1G1 (human) (UniProt Q9HCP0)
[40] = molecular target: CSNK1G3 (human) (UniProt Q9Y6M4)
[41] = molecular target: STK16 (human) (UniProt O75716)

Chain of RIPK4 (human) (P57078 whole entry, looked up): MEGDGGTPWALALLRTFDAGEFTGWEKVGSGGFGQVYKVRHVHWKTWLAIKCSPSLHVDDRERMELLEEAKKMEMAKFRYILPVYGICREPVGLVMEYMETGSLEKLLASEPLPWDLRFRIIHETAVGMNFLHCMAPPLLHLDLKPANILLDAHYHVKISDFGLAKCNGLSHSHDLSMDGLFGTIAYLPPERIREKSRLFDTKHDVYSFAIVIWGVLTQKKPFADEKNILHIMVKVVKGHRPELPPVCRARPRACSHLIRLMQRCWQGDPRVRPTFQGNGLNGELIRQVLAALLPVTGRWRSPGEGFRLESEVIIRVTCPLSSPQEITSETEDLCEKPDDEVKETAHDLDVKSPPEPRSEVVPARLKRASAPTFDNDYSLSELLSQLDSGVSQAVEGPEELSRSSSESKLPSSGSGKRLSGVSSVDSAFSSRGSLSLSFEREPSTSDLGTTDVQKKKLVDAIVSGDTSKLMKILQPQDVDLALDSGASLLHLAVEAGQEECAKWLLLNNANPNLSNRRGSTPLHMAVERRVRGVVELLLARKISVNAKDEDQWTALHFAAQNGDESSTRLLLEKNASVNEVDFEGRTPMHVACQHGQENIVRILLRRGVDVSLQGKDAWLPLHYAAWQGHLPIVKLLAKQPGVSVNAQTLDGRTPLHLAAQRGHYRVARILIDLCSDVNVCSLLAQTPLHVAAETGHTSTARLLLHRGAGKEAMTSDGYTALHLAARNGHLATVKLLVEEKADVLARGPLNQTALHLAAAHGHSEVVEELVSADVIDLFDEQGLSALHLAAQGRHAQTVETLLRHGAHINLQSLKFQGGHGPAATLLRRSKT
Chain of RPS6KA5 KD2 (human) (O75582 whole entry, looked up): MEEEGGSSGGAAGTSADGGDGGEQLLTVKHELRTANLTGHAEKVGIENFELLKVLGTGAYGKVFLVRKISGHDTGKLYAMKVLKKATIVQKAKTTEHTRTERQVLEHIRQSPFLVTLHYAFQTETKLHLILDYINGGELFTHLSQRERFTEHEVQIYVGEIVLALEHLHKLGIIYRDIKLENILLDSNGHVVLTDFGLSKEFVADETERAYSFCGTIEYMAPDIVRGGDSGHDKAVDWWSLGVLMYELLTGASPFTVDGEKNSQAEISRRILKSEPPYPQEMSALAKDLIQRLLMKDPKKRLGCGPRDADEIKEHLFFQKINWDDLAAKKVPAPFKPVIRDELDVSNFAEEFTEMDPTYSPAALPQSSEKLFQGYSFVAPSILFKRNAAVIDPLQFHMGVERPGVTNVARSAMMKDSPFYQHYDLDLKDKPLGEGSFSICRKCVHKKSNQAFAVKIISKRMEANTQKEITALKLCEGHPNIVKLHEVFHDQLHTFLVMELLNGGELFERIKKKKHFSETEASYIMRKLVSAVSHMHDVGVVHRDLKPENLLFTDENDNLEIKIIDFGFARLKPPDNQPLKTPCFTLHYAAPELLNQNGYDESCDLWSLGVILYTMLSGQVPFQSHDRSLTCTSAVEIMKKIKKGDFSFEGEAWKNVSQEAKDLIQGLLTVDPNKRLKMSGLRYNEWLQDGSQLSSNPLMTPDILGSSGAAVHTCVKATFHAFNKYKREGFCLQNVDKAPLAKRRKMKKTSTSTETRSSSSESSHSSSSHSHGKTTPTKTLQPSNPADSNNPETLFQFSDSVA
Chain of STK17A (human) (Q9UEE5 whole entry, looked up): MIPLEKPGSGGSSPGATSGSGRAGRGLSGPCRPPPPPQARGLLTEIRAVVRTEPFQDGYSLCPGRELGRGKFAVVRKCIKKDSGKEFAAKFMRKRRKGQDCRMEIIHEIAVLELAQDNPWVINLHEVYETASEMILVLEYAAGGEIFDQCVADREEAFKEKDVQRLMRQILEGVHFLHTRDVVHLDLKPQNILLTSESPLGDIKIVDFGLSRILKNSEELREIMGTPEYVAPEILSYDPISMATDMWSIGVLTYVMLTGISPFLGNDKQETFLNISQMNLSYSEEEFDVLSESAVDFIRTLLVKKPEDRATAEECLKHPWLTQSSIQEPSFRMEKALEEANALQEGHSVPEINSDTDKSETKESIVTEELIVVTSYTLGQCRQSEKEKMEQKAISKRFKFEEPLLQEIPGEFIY
Chain of DAPK1 (human) (P53355 whole entry, looked up): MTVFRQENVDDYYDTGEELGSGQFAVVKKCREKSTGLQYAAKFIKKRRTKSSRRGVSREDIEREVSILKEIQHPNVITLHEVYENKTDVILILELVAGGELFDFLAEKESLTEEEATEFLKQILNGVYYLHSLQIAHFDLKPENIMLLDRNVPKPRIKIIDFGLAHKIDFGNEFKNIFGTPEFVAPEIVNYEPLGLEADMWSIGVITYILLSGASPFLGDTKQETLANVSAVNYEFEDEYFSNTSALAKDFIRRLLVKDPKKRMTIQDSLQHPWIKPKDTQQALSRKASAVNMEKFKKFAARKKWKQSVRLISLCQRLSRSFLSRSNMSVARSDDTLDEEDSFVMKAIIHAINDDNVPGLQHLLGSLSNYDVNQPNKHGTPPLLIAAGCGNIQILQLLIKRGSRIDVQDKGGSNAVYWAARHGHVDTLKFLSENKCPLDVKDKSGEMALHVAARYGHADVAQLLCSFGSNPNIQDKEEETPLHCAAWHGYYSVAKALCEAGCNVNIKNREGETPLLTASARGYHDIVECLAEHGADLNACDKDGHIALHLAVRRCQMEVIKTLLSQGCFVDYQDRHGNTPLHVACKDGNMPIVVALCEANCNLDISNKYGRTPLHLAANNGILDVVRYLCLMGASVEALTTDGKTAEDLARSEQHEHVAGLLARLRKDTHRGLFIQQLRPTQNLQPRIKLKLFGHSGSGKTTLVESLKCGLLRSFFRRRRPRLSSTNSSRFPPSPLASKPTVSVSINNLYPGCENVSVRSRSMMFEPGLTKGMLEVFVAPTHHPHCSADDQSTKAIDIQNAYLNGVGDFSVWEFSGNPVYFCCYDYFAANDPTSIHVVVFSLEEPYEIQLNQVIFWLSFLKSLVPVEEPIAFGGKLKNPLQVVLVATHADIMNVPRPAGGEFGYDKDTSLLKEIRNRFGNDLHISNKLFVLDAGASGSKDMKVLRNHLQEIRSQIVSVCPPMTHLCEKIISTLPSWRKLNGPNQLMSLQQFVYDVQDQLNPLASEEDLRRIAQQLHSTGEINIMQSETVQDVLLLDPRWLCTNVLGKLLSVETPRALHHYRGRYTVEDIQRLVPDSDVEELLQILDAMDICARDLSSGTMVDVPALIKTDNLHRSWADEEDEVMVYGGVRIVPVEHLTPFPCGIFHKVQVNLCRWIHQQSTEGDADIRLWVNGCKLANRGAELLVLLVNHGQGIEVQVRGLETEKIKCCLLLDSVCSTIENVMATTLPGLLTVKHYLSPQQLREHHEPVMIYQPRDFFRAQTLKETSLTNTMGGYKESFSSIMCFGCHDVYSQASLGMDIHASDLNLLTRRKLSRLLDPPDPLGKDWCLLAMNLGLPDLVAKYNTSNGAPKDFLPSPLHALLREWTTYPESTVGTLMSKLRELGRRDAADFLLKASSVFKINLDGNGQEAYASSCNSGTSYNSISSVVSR
Chain of PIP4K2B (human) (P78356 whole entry, looked up): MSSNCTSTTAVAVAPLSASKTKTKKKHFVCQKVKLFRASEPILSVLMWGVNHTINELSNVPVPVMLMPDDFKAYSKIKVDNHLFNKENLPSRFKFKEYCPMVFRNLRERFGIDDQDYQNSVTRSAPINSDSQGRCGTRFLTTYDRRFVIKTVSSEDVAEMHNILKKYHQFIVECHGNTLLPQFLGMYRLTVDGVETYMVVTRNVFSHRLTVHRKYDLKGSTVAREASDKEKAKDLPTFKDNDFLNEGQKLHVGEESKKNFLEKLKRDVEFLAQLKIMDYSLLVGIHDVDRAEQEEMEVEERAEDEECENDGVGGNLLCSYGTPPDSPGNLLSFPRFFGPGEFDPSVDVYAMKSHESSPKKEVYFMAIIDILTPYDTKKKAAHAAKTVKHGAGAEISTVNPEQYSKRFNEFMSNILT
Chain of RIOK1 (human) (Q9BRS2 whole entry, looked up): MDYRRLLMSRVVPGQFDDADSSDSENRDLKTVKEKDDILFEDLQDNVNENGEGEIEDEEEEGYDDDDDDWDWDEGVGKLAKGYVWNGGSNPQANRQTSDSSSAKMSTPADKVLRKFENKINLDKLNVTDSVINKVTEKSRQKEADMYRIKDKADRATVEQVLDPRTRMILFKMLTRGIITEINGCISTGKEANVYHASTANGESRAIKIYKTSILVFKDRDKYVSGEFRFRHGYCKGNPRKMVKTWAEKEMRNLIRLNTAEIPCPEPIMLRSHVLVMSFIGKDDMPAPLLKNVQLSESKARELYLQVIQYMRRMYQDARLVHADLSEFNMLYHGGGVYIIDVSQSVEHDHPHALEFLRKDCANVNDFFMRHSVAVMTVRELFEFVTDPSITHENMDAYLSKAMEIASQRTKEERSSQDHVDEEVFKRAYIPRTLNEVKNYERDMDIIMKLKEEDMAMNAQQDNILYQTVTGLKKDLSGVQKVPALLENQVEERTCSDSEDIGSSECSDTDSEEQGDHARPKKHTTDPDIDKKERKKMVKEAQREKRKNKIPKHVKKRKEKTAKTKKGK
Chain of CLK3 (human) (P49761 whole entry, looked up): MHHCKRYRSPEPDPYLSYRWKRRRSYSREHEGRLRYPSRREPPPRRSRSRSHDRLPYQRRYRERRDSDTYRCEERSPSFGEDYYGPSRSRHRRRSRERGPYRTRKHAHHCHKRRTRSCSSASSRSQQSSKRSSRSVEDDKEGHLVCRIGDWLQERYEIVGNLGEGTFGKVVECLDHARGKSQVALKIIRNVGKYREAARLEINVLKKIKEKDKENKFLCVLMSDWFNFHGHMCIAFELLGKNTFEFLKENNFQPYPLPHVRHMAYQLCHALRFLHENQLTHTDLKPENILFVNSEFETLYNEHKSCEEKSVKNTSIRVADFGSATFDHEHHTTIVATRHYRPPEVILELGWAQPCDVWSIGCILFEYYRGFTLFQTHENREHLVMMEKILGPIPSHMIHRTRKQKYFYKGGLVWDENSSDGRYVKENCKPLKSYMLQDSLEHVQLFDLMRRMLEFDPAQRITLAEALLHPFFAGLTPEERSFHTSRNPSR

SMILES | kinase still bound, per cent of control [1] | kinase still bound, per cent of control [2] | kinase still bound, per cent of control [3] | kinase still bound, per cent of control [4] | kinase still bound, per cent of control [5] | kinase still bound, per cent of control [6] | kinase still bound, per cent of control [7] | kinase still bound, per cent of control [8] | kinase still bound, per cent of control [9] | kinase still bound, per cent of control [10] | kinase still bound, per cent of control [11] | kinase still bound, per cent of control [13] | kinase still bound, per cent of control [14] | kinase still bound, per cent of control [15] | kinase still bound, per cent of control [16] | kinase still bound, per cent of control [17] | kinase still bound, per cent of control [18] | kinase still bound, per cent of control [19] | kinase still bound, per cent of control [20] | kinase still bound, per cent of control [21] | further results
N=C1NC(=O)/C(=C/c2ccc(-c3ccccc3O)o2)S1 | 8.8% | 19% | 7.6% | 16% | 15% | 9.5% | 28% | 29% | 15% | 0.15% | 21% | 2.9% | 14% | 12% | 13% | 29% | 3.6% | 0.05% | 5.2% | 0.4% | kinase still bound, per cent of control [12]: 31%; kinase still bound, per cent of control [22]: 16%
N=C1NC(=O)/C(=C/c2ccc(-c3ccc(C(N)=O)cc3O)o2)S1 |  | 31% | 9.7% |  |  | 16% |  | 22% | 22% | 0.65% |  | 2.7% | 32% | 4.2% | 16% |  | 9% | 13% | 7.9% | 0.3% | kinase still bound, per cent of control [30]: 16%
CN1C(=O)[C@H]2CCC[C@H]2N(C2CCCC2)c2nc(Nc3ccc(C(N)=O)cc3)ncc21 |  |  | 3.2% |  | 1.8% |  | 9.6% | 5.5% |  | 18% | 26% | 1.4% | 32% |  |  |  |  | 10% | 30% | 0.05% | kinase still bound, per cent of control [34]: 11%; kinase still bound, per cent of control [23]: 6%; kinase still bound, per cent of control [35]: 16%; kinase still bound, per cent of control [36]: 2%; kinase still bound, per cent of control [24]: 13%; kinase still bound, per cent of control [37]: 9.2%; kinase still bound, per cent of control [26]: 19%; kinase still bound, per cent of control [27]: 5.2%; kinase still bound, per cent of control [38]: 2.2%; kinase still bound, per cent of control [28]: 27%; kinase still bound, per cent of control [29]: 3.5%; kinase still bound, per cent of control [39]: 23%; kinase still bound, per cent of control [40]: 17%; kinase still bound, per cent of control [33]: 14%; kinase still bound, per cent of control [41]: 4.8%; kinase still bound, per cent of control [22]: 31%

More lines, main results first:

kinase still bound, per cent of control [1] | kinase still bound, per cent of control [2] | kinase still bound, per cent of control [3] | kinase still bound, per cent of control [4] | kinase still bound, per cent of control [5] | kinase still bound, per cent of control [6] | kinase still bound, per cent of control [7] | kinase still bound, per cent of control [8] | kinase still bound, per cent of control [9] | kinase still bound, per cent of control [10] | kinase still bound, per cent of control [11] | kinase still bound, per cent of control [13] | kinase still bound, per cent of control [14] | kinase still bound, per cent of control [15] | kinase still bound, per cent of control [16] | kinase still bound, per cent of control [17] | kinase still bound, per cent of control [18] | kinase still bound, per cent of control [19] | kinase still bound, per cent of control [20] | kinase still bound, per cent of control [21] | SMILES | further results
4.1% | 4.6% | 6.4% |  | 15% | 15% | 13% |  | 12% |  | 11% |  | 29% | 2.4% | 33% | 0.15% | 0.85% |  |  | 3.4% | CS(=O)(=O)Nc1ccc(-c2cc(/C=C3\SC(=N)NC3=O)c[nH]c2=O)cc1 | kinase still bound, per cent of control [23]: 33%; kinase still bound, per cent of control [24]: 19%; kinase still bound, per cent of control [25]: 22%; kinase still bound, per cent of control [26]: 8.6%; kinase still bound, per cent of control [27]: 30%; kinase still bound, per cent of control [28]: 14%; kinase still bound, per cent of control [29]: 25%; kinase still bound, per cent of control [30]: 25%; kinase still bound, per cent of control [31]: 27%; kinase still bound, per cent of control [12]: 6.6%; kinase still bound, per cent of control [32]: 12%; kinase still bound, per cent of control [33]: 13%
12% | 14% | 8.3% | 15% | 24% | 15% |  | 16% | 16% | 0.1% | 23% | 1% | 26% | 11% | 14% | 24% | 5% | 0.2% | 4.2% | 0.3% | N=C1NC(=O)/C(=C/c2ccc(-c3ccc(F)cc3O)o2)S1 | 
2.2% |  | 2.2% | 11% |  | 30% | 6.6% | 2% | 10% |  | 9.8% |  | 6.8% | 1.2% | 3.6% | 11% | 26% | 24% |  | 0.3% | Nc1cccc(-c2cc(/C=C3\SC(=O)NC3=O)c[nH]c2=O)c1 | kinase still bound, per cent of control [38]: 30%; kinase still bound, per cent of control [28]: 13%; kinase still bound, per cent of control [30]: 0.6%; kinase still bound, per cent of control [39]: 19%; kinase still bound, per cent of control [40]: 13%; kinase still bound, per cent of control [41]: 9.3%
